Results as given in US20220298213A1, “IN VIVO ENGINEERED CEREBLON PROTEIN” (Vividion Therapeutics, Inc., priority 2018, published 2022).
Values belong to the compound of their own block, whether it stands above or below them.

Experiments:
Format in all cases: binding
[1] = target: T1, BTK_481 (Homo sapiens, UniProt Q06187); assay: Probe labeling at native and denatured states after pretreatment (Table 2); details: screening concentration
T1 construct: In each the cell lysate was pretreated with compound; endogenous in cells
T1 sequence (Q06187 whole entry): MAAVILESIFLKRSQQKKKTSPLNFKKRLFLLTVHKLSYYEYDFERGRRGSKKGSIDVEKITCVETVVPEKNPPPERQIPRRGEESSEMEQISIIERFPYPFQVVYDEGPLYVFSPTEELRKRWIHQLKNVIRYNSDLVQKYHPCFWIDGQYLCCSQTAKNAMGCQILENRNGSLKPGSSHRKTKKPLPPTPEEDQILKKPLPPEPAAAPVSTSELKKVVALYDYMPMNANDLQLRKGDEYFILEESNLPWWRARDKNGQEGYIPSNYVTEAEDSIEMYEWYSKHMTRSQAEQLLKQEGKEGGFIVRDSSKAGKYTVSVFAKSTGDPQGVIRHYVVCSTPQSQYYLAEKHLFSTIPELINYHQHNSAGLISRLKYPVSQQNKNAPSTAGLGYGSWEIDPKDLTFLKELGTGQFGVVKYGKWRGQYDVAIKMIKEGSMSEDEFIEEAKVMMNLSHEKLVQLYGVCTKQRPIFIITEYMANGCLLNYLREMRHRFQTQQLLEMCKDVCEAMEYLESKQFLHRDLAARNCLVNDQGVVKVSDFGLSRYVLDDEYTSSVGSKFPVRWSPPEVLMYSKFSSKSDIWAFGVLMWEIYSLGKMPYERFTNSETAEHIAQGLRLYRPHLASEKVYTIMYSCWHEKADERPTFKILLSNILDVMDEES

[2] = target: T2, CRBN_234 (Homo sapiens, UniProt Q96SW2); assay: as above
T2 construct: endogenous in cells; host or cells: cell lysate
T2 sequence (Q96SW2 whole entry): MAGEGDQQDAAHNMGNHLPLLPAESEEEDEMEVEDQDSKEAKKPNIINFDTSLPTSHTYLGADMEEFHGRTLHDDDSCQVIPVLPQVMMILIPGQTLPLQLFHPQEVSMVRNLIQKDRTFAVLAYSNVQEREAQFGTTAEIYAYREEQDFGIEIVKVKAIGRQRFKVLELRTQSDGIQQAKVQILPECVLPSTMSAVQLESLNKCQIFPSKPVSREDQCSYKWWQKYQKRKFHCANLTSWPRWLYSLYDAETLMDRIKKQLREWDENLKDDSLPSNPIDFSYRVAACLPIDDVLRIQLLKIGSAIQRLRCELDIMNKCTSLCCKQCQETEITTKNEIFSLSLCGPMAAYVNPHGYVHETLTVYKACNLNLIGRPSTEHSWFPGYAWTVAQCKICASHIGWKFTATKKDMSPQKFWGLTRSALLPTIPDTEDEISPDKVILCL
Description: (§1) To determine whether the co-inhibition of C287 and C318 was due to a direct or indirect mechanism, CRBN was pretreated with various Michael acceptor compounds and then tested for probe labeling in its native and denatured states.
(§2) In each the cell lysate was pretreated with compound, for native state data the probe was immediately added and for denatured data the probe was added after an additional step of denaturation (schematic shown in FIG. 4).

[3] = target: T3, CRBN_441 (Homo sapiens, UniProt Q96SW2); assay: as above
T3 construct: endogenous in cells; host or cells: cell lysate
T3 sequence (Q96SW2 whole entry): as above
Description: as §1, §2

[4] = target: T4, CRBN_188 (Homo sapiens, UniProt Q96SW2); assay: as above
T4 construct: endogenous in cells; host or cells: cell lysate
T4 sequence (Q96SW2 whole entry): as above
Description: as §1, §2

[5] = target: T5, CRBN_326 (Homo sapiens, UniProt Q96SW2); assay: as above
T5 construct: endogenous in cells; host or cells: cell lysate
T5 sequence (Q96SW2 whole entry): as above
Description: as §1, §2

[6] = target: T6, CRBN_310 (Homo sapiens, UniProt Q96SW2); assay: as above
T6 construct: endogenous in cells; host or cells: cell lysate
T6 sequence (Q96SW2 whole entry): as above
Description: as §1, §2

[7] = target: T7, CRBN_219 (Homo sapiens, UniProt Q96SW2); assay: as above
T7 construct: endogenous in cells; host or cells: cell lysate
T7 sequence (Q96SW2 whole entry): as above
Description: as §1, §2

[8] = target: T8, CRBN_343 (Homo sapiens, UniProt Q96SW2); assay: as above
T8 construct: endogenous in cells; host or cells: cell lysate
T8 sequence (Q96SW2 whole entry): as above
Description: as §1, §2

[9] = target: T9, CRBN_322 (Homo sapiens, UniProt Q96SW2); assay: as above
T9 construct: endogenous in cells; host or cells: cell lysate
T9 sequence (Q96SW2 whole entry): as above
Description: as §1, §2

[10] = target: T10, CRBN_205 (Homo sapiens, UniProt Q96SW2); assay: as above
T10 construct: endogenous in cells; host or cells: cell lysate
T10 sequence (Q96SW2 whole entry): as above
Description: as §1, §2

[11] = target: T11, TEC_449 (Homo sapiens, UniProt P42680); assay: as above; details: screening concentration
T11 construct: In each the cell lysate was pretreated with compound; endogenous in cells
T11 sequence (P42680 1-631): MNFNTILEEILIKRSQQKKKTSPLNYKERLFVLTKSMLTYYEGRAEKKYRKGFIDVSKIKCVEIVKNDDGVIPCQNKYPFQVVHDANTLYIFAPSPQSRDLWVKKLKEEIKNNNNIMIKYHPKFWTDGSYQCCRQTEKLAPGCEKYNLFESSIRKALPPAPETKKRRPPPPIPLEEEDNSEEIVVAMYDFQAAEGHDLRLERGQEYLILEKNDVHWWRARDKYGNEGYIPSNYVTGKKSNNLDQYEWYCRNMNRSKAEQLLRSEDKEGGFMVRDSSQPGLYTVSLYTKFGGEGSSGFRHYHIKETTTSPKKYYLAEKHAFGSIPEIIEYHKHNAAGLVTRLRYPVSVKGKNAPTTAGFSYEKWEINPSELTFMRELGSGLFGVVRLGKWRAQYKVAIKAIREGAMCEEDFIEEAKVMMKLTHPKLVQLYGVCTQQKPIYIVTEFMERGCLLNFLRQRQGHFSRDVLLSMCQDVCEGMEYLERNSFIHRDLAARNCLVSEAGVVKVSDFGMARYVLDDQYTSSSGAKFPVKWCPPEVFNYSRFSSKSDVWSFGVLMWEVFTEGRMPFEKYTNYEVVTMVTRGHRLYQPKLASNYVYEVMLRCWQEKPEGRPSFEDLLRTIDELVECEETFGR

[12] = target: CRBN-287 (Homo sapiens, UniProt Q96SW2); assay: as above; set-up: endogenous in cells; host or cells: cell lysate
CRBN-287, sequence (Q96SW2 whole entry): as the sequence (Q96SW2 whole entry) above
Description: as §1, §2

[13] = target: CRBN-318 (Homo sapiens, UniProt Q96SW2); assay: as above; set-up: endogenous in cells; host or cells: cell lysate
CRBN-318, sequence (Q96SW2 whole entry): as the sequence (Q96SW2 whole entry) above
Description: as §1, §2

[14] = target: T12, CRBN Cys219 (Homo sapiens, UniProt Q96SW2); assay: Inhibition of iodoacetamide probe labeling of CRBN cysteines, cell lysate (Table 3A); details: cell lysate, 1 h
T12 construct: endogenous in cells
T12 sequence (Q96SW2 whole entry): as the sequence (Q96SW2 whole entry) above
Description: (§3) “X@Y” means that x % inhibition of iodoacetamide probe labeling was observed by treatment of cell lysate with the give compound in each row of the table for 1 h at a concentration of y micromolar. There was consistently high inhibition at C318 in addition to C287, which can be attributed to an allosteric inhibition.

[15] = target: T13, CRBN Cys188 (Homo sapiens, UniProt Q96SW2); assay: as above; details: 500 micromolar, cell lysate, 1 h
T13 construct: endogenous in cells
T13 sequence (Q96SW2 whole entry): as the sequence (Q96SW2 whole entry) above
Description: as §3

[16] = target: T14, CRBN Cys287 (Homo sapiens, UniProt Q96SW2); assay: as above; details: cell lysate, 1 h; for inhibition at 500 µM: 500 micromolar
T14 construct: endogenous in cells
T14 sequence (Q96SW2 whole entry): as the sequence (Q96SW2 whole entry) above
Description: as §3

[17] = target: T15, CRBN Cys205 (Homo sapiens, UniProt Q96SW2); assay: as above; details: cell lysate, 1 h
T15 construct: endogenous in cells
T15 sequence (Q96SW2 whole entry): as the sequence (Q96SW2 whole entry) above
Description: as §3

[18] = target: T16, CRBN Cys366 (Homo sapiens, UniProt Q96SW2); assay: as above; details: cell lysate, 1 h
T16 construct: endogenous in cells
T16 sequence (Q96SW2 whole entry): as the sequence (Q96SW2 whole entry) above
Description: as §3

[19] = target: T17, CRBN Cys343 (Homo sapiens, UniProt Q96SW2); assay: as above; details: cell lysate, 1 h
T17 construct: endogenous in cells
T17 sequence (Q96SW2 whole entry): as the sequence (Q96SW2 whole entry) above
Description: as §3

[20] = target: T18, CRBN Cys234 (Homo sapiens, UniProt Q96SW2); assay: as above; details: cell lysate, 1 h
T18 construct: endogenous in cells
T18 sequence (Q96SW2 whole entry): as the sequence (Q96SW2 whole entry) above
Description: as §3

[21] = target: T19, CRBN Cys318 (Homo sapiens, UniProt Q96SW2); assay: as above; details: cell lysate, 1 h
T19 construct: endogenous in cells
T19 sequence (Q96SW2 whole entry): as the sequence (Q96SW2 whole entry) above
Description: as §3

[22] = read-out: % inhibition of iodoacetamide probe labeling, Cys287

inhibition of probe labeling, BTK_481, Den. ([1]; denatured state): 99%
inhibition of probe labeling, BTK_481, Nat. ([1]; native state): 99%
inhibition of probe labeling, CRBN_234, Den. [2]: −7%
inhibition of probe labeling, CRBN_234, Nat. [2]: −4%
inhibition of probe labeling, CRBN_441, Den. [3]: −24%
inhibition of probe labeling, CRBN_188, Den. [4]: −21%
inhibition of probe labeling, CRBN_188, Nat. [4]: −13%
inhibition of probe labeling, CRBN_326, Den. [5]: −16%
inhibition of probe labeling, CRBN_310, Den. [6]: −1%
inhibition of probe labeling, CRBN_310, Nat. [6]: 9%
inhibition of probe labeling, CRBN_219, Den. [7]: 24%
inhibition of probe labeling, CRBN_219, Nat. [7]: −6%
inhibition of probe labeling, CRBN_343, Den. [8]: −28%
inhibition of probe labeling, CRBN_322, Den. [9]: 15%
inhibition of probe labeling, CRBN_322, Nat. [9]: 36%
inhibition of probe labeling, CRBN_205, Den. [10]: −11%
inhibition of probe labeling, CRBN_205, Nat. [10]: −23%
inhibition of probe labeling, TEC_449, Den. ([11]; denatured state): 98%
inhibition of probe labeling, TEC_449, Nat. ([11]; native state): 99%
inhibition of probe labeling, CRBN_287, Den. [12]: 67%
inhibition of probe labeling, CRBN_318, Den. [13]: 11%
Compound: C=CC(=O)N1CC(Cc2ccc(C)cc2)C1

inhibition at 500 µM ([14]; 500 micromolar, read-out: % inhibition of iodoacetamide probe labeling, Cys219): 31%
inhibition at 500 µM [15]: 9%
inhibition at 500 µM [16, 22]: 91%
inhibition at 500 µM ([17]; 500 micromolar, read-out: % inhibition of iodoacetamide probe labeling, Cys205): 18%
inhibition at 500 µM ([18]; 500 micromolar): 2%
inhibition at 500 µM ([19]; 500 micromolar): -6%
Compound: C=CC(=O)N1CCC(Oc2cc(C(=O)N(C)C)cc(-c3ccccc3OC)c2)CC1 [Example A2]

inhibition at 5 µM ([14]; 5 micromolar): -3%
inhibition at 50 µM ([14]; 50 micromolar): 32%
inhibition at 0.5 µM ([20]; 0.5 micromolar): 12%
inhibition at 5 µM ([20]; 5 micromolar): 19%
inhibition at 50 µM ([20]; 50 micromolar): 32%
inhibition at 2 µM ([16]; 2.0 micromolar, read-out: % inhibition of iodoacetamide probe labeling, Cys287): 71%
inhibition at 7.8 µM ([16]; 7.8 micromolar): 72%
inhibition at 31.2 µM ([16]; 31.2 micromolar, read-out: % inhibition of iodoacetamide probe labeling, Cys287): 95%
inhibition at 125 µM ([16]; 125 micromolar, read-out: % inhibition of iodoacetamide probe labeling, Cys287): 94%
inhibition at 500 µM [16, 22]: 92%
inhibition at 5 µM ([17]; 5 micromolar): -42%
inhibition at 0.5 µM ([18]; 0.5 micromolar): 3%
inhibition at 5 µM ([18]; 5 micromolar): 3%
inhibition at 50 µM ([18]; 50 micromolar): 26%
inhibition at 5 µM ([19]; 5 micromolar): 8%
inhibition at 50 µM ([19]; 50 micromolar): 51%
inhibition at 0.5 µM ([21]; 0.5 micromolar): 39%
inhibition at 5 µM ([21]; 5 micromolar): 67%
inhibition at 50 µM ([21]; 50 micromolar): 69%
Compound: CC(/C=C(\C#N)C(=O)N1CCC(c2ccccc2)C1)c1ccccc1 (stereo not shown) [Example A7]
